For 23 compounds, Ki results are on record in US8299048B2, “Hexahydrocyclopentyl[f]indazole sulfonamides and derivatives thereof as selective glucocorticoid receptor modulators” (Merck Sharp & Dohme Corp., priority 2008, dated 2012).

The target of this experiment is T1, glucocorticoid receptor (Homo sapiens, UniProt P04150).
T1 construct: endogenous in cells
T1 sequence (P04150 1-777): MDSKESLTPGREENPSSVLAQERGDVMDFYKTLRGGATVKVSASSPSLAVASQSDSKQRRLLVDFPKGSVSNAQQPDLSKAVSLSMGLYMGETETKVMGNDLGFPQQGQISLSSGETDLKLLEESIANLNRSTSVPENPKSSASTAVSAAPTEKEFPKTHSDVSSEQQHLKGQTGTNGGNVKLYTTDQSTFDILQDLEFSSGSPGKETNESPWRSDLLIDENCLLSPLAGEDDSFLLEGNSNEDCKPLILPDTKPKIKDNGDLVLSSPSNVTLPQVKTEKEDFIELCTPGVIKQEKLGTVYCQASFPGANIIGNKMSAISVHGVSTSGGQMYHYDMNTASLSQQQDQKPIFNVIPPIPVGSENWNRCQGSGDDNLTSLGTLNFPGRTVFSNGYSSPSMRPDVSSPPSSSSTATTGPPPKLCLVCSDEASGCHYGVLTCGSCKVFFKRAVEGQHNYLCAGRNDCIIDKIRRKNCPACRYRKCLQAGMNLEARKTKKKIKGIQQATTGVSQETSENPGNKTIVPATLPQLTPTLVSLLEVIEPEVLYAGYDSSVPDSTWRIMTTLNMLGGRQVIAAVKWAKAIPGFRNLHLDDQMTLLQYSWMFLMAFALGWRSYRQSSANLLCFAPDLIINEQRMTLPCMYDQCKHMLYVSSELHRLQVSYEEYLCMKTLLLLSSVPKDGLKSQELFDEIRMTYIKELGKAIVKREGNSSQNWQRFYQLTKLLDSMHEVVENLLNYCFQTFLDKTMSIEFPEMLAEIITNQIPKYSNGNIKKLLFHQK
The experiment in a line: Ligand binding assay (GR BIND). A digest of the protocol: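 Displacement of tritiated dexamethasone (6 nM trace solution) from receptor in cell supernatant was measured after overnight incubation at 4 °C in molybdate-containing TEGM, pH 7.2, 2% ethanol. Hydroxylapatite pulled down the receptor–ligand complex for filter washing and scintillation counting, with dexamethasone as reference.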

The Ki is a measure of affinity in units of concentration, obtained from inhibition or displacement. Low values mean a stronger hold on the target, high ones a looser hold on the target. Compound `Cc1oncc1S(=O)(=O)N(CCO)C[C@H]1CCC2=Cc3c(cnn3-c3ccc(F)cc3)C[C@@]21C` [Example 56, N-{[(4αR,5S)-1-(4-fluorophenyl)-4α-methyl-1,4,4α,5,6,7-hexahydrocyclopenta[f]indazol-5-yl]methyl}-N-(2-hydroxyethyl)-5-methylisoxazole-4-sulfonamide] returned a Ki of 4.6 nM.

`C[C@]12Cc3cnn(-c4ccc(F)cc4)c3C=C1CC[C@@H]2CN(CCO)S(=O)(=O)c1cc(Cl)c(Cl)s1` [Example 58, 4,5-dichloro-N-{[(4αR,5S)-1-(4-fluorophenyl)-4α-methyl-1,4,4α,5,6,7-hexahydrocyclopenta[f]indazol-5-yl]methyl}-N-(2-hydroxyethyl)thiophene-2-sulfonamide] displayed a Ki of 2.3 nM.

In turn, `C[C@]12Cc3cnn(-c4ccc(F)cc4)c3C=C1CC[C@@H]2CN(CCO)S(=O)(=O)c1ccc(F)c(F)c1` [Example 59] registered a Ki of 2.6 nM. This Ki and that of the compound before are within 1.5-fold of each other.

`C[C@]12Cc3cnn(-c4ccc(F)cc4)c3C=C1CC[C@@H]2CN(CCO)S(=O)(=O)c1ccc(C#N)cc1Cl` [Example 60, 2-chloro-4-cyano-N-{[(4αR,5S)-1-(4-fluorophenyl)-4α-methyl-1,4,4α,5,6,7-hexahydrocyclopenta[f]indazol-5-yl]methyl}-N-(2-hydroxyethyl)benezenesulfonamide]: the inhibitory constant (Ki) was determined as 4.4 nM.

In turn, `C[C@]12Cc3cnn(-c4ccc(F)cc4)c3C=C1CC[C@@H]2CN(CCO)S(=O)(=O)c1cccc(Cl)c1Cl` [Example 61, 2,3-dichloro-N-{[(4αR,5S)-1-(4-fluorophenyl)-4α-methyl-1,4,4α,5,6,7-hexahydrocyclopenta[f]indazol-5-yl]methyl}-N-(2-hydroxyethyl)benezenesulfonamide] displayed a Ki of 2.5 nM.

In turn, `C[C@]12Cc3cnn(-c4ccc(F)cc4)c3C=C1CC[C@@H]2CNS(=O)(=O)Cc1cccnc1` [Example 169, N-{[(4αR,5S)-1-(4-fluorophenyl)-4α-methyl-1,4,4α,5,6,7-hexahydrocyclopenta[f]indazol-5-yl]methyl}-1-pyridin-3-ylmethanesulfonamide] registered a Ki of 20.9 nM.

`Cc1noc(C)c1S(=O)(=O)N(CC1CCCO1)C[C@H]1CCC2=Cc3c(cnn3-c3ccc(F)cc3)C[C@@]21C` (stereo partly drawn) [Example 170, N-{[(4αR,5S)-1-(4-fluorophenyl)-4α-methyl-1,4,4α,5,6,7-hexahydrocyclopenta[f]indazol-5-yl]methyl}-3,5-dimethyl-N-(tetrahydrofuran-2-ylmethyl)isoxazole-4-sulfonamide]: the Ki was found to be 2.6 nM.

Compound `CCS(=O)(=O)N(CCOC)C[C@H]1CCC2=Cc3c(cnn3-c3ccc(F)cc3)C[C@@]21C` [Example 171, N-{[(4αR,5S)-1-(4-fluorophenyl)-4α-methyl-1,4,4α,5,6,7-hexahydrocyclopenta[f]indazol-5-yl]methyl}-N-(2-methoxyethyl)ethanesulfonamide] displayed a Ki of 7 nM.

Compound `COCCN(C[C@H]1CCC2=Cc3c(cnn3-c3ccc(F)cc3)C[C@@]21C)S(=O)(=O)c1cn(C)nc1C(F)(F)F` [Example 172, N-{[(4αR,5S)-1-(4-fluorophenyl)-4α-methyl-1,4,4α,5,6,7-hexahydrocyclopenta[f]indazol-5-yl]methyl}-N-(2-methoxyethyl)-1-methyl-3-(trifluoromethyl)-1H-pyrazole-4-sulfonamide] gave a Ki of 0.6 nM. Against the preceding compound, the Ki is about 12-fold lower.

The compound `COCCN(C[C@H]1CCC2=Cc3c(cnn3-c3ccc(F)cc3)C[C@@]21C)S(=O)(=O)c1c(C)noc1C` [Example 173, N-{[(4αR,5S)-1-(4-fluorophenyl)-4α-methyl-1,4,4α,5,6,7-hexahydrocyclopenta[f]indazol-5-yl]methyl}-N-(2-methoxyethyl)-3,5-dimethylisoxazole-4-sulfonamide] had a Ki of 1.3 nM.

Compound `CCS(=O)(=O)N(CC1CCCO1)C[C@H]1CCC2=Cc3c(cnn3-c3ccc(F)cc3)C[C@@]21C` (stereo partly drawn) [Example 174, N-{[(4αR,5S)-1-(4-fluorophenyl)-4α-methyl-1,4,4α,5,6,7-hexahydrocyclopenta[f]indazol-5-yl]methyl}-N-(tetrahydrofuran-2-ylmethyl)ethanesulfonamide] registered a Ki of 3.4 nM.

The compound `Cn1cc(S(=O)(=O)N(CC2CCCO2)C[C@H]2CCC3=Cc4c(cnn4-c4ccc(F)cc4)C[C@@]32C)c(C(F)(F)F)n1` (stereo partly drawn) [Example 175, N-{[(4αR,5S)-1-(4-fluorophenyl)-4α-methyl-1,4,4α,5,6,7-hexahydrocyclopenta[f]indazol-5-yl]methyl}-1-methyl-N-(tetrahydrofuran-2-ylmethyl)-3-(trifluoromethyl)-1H-pyrazole-4-sulfonamide] had a Ki of 1 nM.

`Cc1noc(C)c1S(=O)(=O)N(C)C[C@H]1CCC2=Cc3c(cnn3-c3ccc(F)cc3)C[C@@]21C` [Example 176, N-{[(4αR,5S)-1-(4-fluorophenyl)-4α-methyl-1,4,4α,5,6,7-hexahydrocyclopenta[f]indazol-5-yl]methyl}-N,3,5-trimethylisoxazole-4-sulfonamide] returned a Ki of 1.3 nM.

In turn, `CN(C[C@H]1CCC2=Cc3c(cnn3-c3ccc(F)cc3)C[C@@]21C)S(=O)(=O)CC(F)(F)F` [Example 177, 2,2,2-trifluoro-N-{[(4αR,5S)-1-(4-fluorophenyl)-4α-methyl-1,4,4α,5,6,7-hexahydrocyclopenta[f]indazol-5-yl]methyl}-N-methylethanesulfonamide] displayed an inhibitory constant (Ki) of 1.6 nM.

Consider `CCN(C[C@H]1CCC2=Cc3c(cnn3-c3ccc(F)cc3)C[C@@]21C)S(=O)(=O)c1c(C)noc1C` [Example 178, N-ethyl-N-{[(4αR,5S)-1-(4-fluorophenyl)-4α-methyl-1,4,4α,5,6,7-hexahydrocyclopenta[f]indazol-5-yl]methyl}-3,5-dimethylisoxazole-4-sulfonamide], for which the affinity corresponds to a Ki of 1.2 nM.

Compound `CCN(C[C@H]1CCC2=Cc3c(cnn3-c3ccc(F)cc3)C[C@@]21C)S(=O)(=O)CC(F)(F)F` [Example 179, N-ethyl-2,2,2-trifluoro-N-{[(4αR,5S)-1-(4-fluorophenyl)-4α-methyl-1,4,4α,5,6,7-hexahydrocyclopenta[f]indazol-5-yl]methyl}ethanesulfonamide] returned a Ki of 1.2 nM.

Consider `COC(=O)c1ccccc1CS(=O)(=O)N(C[C@H]1CCC2=Cc3c(cnn3-c3ccc(F)cc3)C[C@@]21C)C[C@@H](C)O` [Example 180, methyl 2-[({{[(4αR,5S)-1-(4-fluorophenyl)-4α-methyl-1,4,4α,5,6,7-hexahydrocyclopenta[f]indazol-5-yl]methyl}[(2R)-2-hydroxypropyl]amino}sulfonyl)methyl]benzoatee], for which affinity was put at a Ki of 1.8 nM.

In turn, `COC(=O)c1ccccc1CS(=O)(=O)N(C[C@H]1CCC2=Cc3c(cnn3-c3ccc(F)cc3)C[C@@]21C)C[C@H](C)O` [Example 181, methyl 2-[({{[(4αR,5S)-1-(4-fluorophenyl)-4α-methyl-1,4,4α,5,6,7-hexahydrocyclopenta[f]indazol-5-yl]methyl}[(2S)-2-hydroxypropyl]amino}sulfonyl)methyl]benzoate] had a Ki of 2.8 nM.

Compound `C[C@@H](O)CN(C[C@H]1CCC2=Cc3c(cnn3-c3ccc(F)cc3)C[C@@]21C)S(=O)(=O)Cc1ccccc1C(=O)O` [Example 182, 2-[({{[(4αR,5S)-1-(4-fluorophenyl)-4α-methyl-1,4,4α,5,6,7-hexahydrocyclopenta[f]indazol-5-yl]methyl}[(2R)-2-hydroxypropyl]amino}sulfonyl)methyl]benzoic acid] displayed a Ki of 93.9 nM. This Ki is about 34-fold higher than that of the compound before.

The compound `C[C@H](O)CN(C[C@H]1CCC2=Cc3c(cnn3-c3ccc(F)cc3)C[C@@]21C)S(=O)(=O)Cc1ccccc1C(=O)O` [Example 183, 2-[({{[(4αR,5S)-1-(4-fluorophenyl)-4α-methyl-1,4,4α,5,6,7-hexahydrocyclopenta[f]indazol-5-yl]methyl}[(2S)-2-hydroxypropyl]amino}sulfonyl)methyl]benzoic acid] yielded a Ki of 64 nM.

As to `C[C@@H](O)CN(C[C@H]1CCC2=Cc3c(cnn3-c3ccc(F)cc3)C[C@@]21C)S(=O)(=O)Cc1ccccc1C(N)=O` [Example 184, 2-[({{[(4αR,5S)-1-(4-fluorophenyl)-4α-methyl-1,4,4α,5,6,7-hexahydrocyclopenta[f]indazol-5-yl]methyl}[(2R)-2-hydroxypropyl]amino}sulfonyl)methyl]benzamide], the affinity corresponds to a Ki of 9.6 nM.

Take `C[C@H](O)CN(C[C@H]1CCC2=Cc3c(cnn3-c3ccc(F)cc3)C[C@@]21C)S(=O)(=O)Cc1ccccc1C(N)=O` [Example 185, 2-[({{[(4αR,5S)-1-(4-fluorophenyl)-4α-methyl-1,4,4α,5,6,7-hexahydrocyclopenta[f]indazol-5-yl]methyl}[(2S)-2-hydroxypropyl]amino}sulfonyl)methyl]benzamide]: the affinity corresponds to a Ki of 13.1 nM.

In turn, `COC(=O)c1ccccc1S(=O)(=O)N(C[C@H]1CCC2=Cc3c(cnn3-c3ccc(F)cc3)C[C@@]21C)C[C@@H](C)O` [Example 186, methyl 2-({{[(4αR,5S)-1-(4-fluorophenyl)-4α-methyl-1,4,4α,5,6,7-hexahydrocyclopenta[f]indazol-5-yl]methyl}[(2R)-2-hydroxypropyl]amino}sulfonyl)benzoate] came in with a Ki of 1.9 nM.
